# US20240100065A1, “METHODS FOR TREATING RECEPTOR-INTERACTING PROTEIN KINASE 1-MEDIATED DISEASES” (Genzyme Corporation, priority 2022, published 2024)
# Values joined by “and” are separate entries in the source; they are usually repeats but may differ in a detail not shown here. Identical values can stand only once. Like-named read-outs stand apart in the source and are kept apart here.
# Columns and labels:
# [1] = biological target: T1, pRIPK1 (Homo sapiens, UniProt Q13546); test: Population PK/PD analysis of pRIPK1; format: in vivo
# T1 construct: Human PBMC are a primary cell type that express endogenous RIPK kinase; endogenous in cells; host or cells: human PBMC isolated from blood of healthy participants
# T1 sequence (Q13546 1-671): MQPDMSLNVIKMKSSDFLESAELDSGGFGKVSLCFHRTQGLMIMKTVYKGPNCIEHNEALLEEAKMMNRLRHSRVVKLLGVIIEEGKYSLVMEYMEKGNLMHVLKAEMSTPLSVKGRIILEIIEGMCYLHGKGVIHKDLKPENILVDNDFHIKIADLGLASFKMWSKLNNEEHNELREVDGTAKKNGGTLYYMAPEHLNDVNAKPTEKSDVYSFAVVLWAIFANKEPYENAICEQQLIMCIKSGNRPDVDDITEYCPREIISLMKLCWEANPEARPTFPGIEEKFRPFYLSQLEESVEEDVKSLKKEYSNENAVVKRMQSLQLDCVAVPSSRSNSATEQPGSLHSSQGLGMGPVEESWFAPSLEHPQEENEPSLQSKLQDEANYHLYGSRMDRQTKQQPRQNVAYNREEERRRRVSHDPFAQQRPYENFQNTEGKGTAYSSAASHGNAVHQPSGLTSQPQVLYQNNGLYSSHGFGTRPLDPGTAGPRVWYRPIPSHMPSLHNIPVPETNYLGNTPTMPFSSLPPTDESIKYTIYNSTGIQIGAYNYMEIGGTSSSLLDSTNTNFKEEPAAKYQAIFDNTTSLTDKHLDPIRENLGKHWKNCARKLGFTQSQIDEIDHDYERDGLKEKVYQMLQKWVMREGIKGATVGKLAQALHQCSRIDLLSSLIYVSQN
# Protocol: An exploratory population pharmacokinetic/pharmacodynamic analysis of phosphorylated receptor-interacting protein kinase 1(pRIPK1) in healthy participants after single (SAD) and repeated (MAD) administrations of Compound 1 was carried out to develop a population PK/PD model from data after single and repeated doses in healthy adults and to derive individual parameters for each dose cohort.
# The population PK/PD analysis was performed using the stochastic approximation expectation maximization (SAEM) algorithm for nonlinear mixed-effects models implemented in MONOLIX software (R1 2020). The observed plasma concentrations were used to develop the model with plasma concentrations from placebo participants and blow limit of quantitation (BLQ) plasma concentrations from verum participants being fixed to zero. Classical direct and indirect inhibitory models were evaluated. Model selection was based on objective function value Akaike and Bayesian Information criteria as well as standard goodness-of-fit plots (Psychol Methods. 2012 June; 17(2):228-43; Pharmaceutics. 2020 June; 12(6): 578.). From selected final population PK/PD model, individual PD parameters were derived and summarized by descriptive statistical analyses by study and dose level.
# A total of 433 samples in 70 participants was considered (101, 121 and 211 samples after placebo, single dose and repeated doses, respectively). No data from potential outliers were excluded. In placebo participants, a very large inter-cohort and inter-individual variability was observed. […] Selection of structural PK/PD model confirmed that a direct relationship best described the data overall.
# [2] = Nonhuman primate toxicology study (NOAEL exposure); format: in vivo; details: 20 mg BID vs nonhuman primate study
# [3] = CSF concentration, CSF-to-unbound plasma concentration ratio (Part 1b); format: in vivo, healthy adult participants (human); details: human; for Kp: oral
# Protocol: Compound 1 concentrations in CSF were measured after single oral dosing in two dedicated cohorts in Part 1b. Lumbar puncture was performed for CSF collection and only one CSF sample per participant was collected on Day 1. Given the limited number of CSF PK samples that were collected in this study, CSF PK parameters were not determined; instead, Compound 1 concentrations in CSF were reported and concentration ratio between CSF and unbound plasma was calculated.
# PK population included all participants exposed to Compound 1 with no major or critical deviations related to Compound 1 and for whom PK data were considered sufficient and interpretable. PK parameters were summarized by descriptive statistics for each dose level group. Distribution of Tmax values was represented by histogram plots for each dose level group. In Part 1a, dose proportionality was assessed using a linear model on Cmax, AUClast and AUC. In Part 2, all PK analyses were performed separately for each regimen (OD and BID). Steady state was assessed on Ctrough using a non-linear model. Accumulation was assessed using a linear model on log-transformed accumulation ratio. Dose proportionality was assessed using a power model on Cmax and AUCtau on Day 1 and Day 14, separately. Variance components of log-transformed Cmax and AUCtau were estimated using a linear model. In Part 1b, CSF concentration was described by dose level group and CSF to plasma unbound concentration ratios calculated were described in the same way. 4β-hydroxycholesterol on Day 14 versus Day 1 pre-dose concentration ratios were summarized using descriptive statistics by dose level group and point estimates with 90% confidence interval (90% CI) for the geometric mean of the log-transformed Day14/Day1 ratio was calculated in Part 2.
structure (smiles),measurement,setting,value
"CC(C)(C(=O)N1CCOc2c(C#N)cncc2C1)C(F)F [Compound 1, 4-(3,3-difluoro-2,2-dimethyl-propanoyl)-3,5-dihydro-2H-pyrido[3,4-f] [1,4]oxazepine-9-carbonitrile]","EC91, plasma conc for 91% decrease in E0",[1]; derived typical value,23.9 ng/mL
same,"EC92, plasma conc for 92% decrease in E0",[1]; derived typical value,30.7 ng/mL
same,"EC93, plasma conc for 93% decrease in E0",[1]; derived typical value,43.3 ng/mL
same,"EC94, plasma conc for 94% decrease in E0",[1]; derived typical value,76.1 ng/mL
same,"EC95, plasma conc for 95% decrease in E0",[1]; derived typical value,600 ng/mL
same,EC50,"[1]; derived typical value, read-out: EC50, plasma conc for 50% decrease in E0 (converted)",6.2 nM
same,EC90,"[1]; derived typical value, read-out: EC90, plasma conc for 90% decrease in E0",0.0197 µg/mL
same,0(Gamma),[1]; population PK/PD model,49.5%
same,"E0, baseline effect",[1]; population PK/PD model,8541 AU_signal
same,σprop,[1]; population PK/PD model,44.5%
same,ω(E0),[1]; population PK/PD model,73.7%
same,ω(IC50),[1]; population PK/PD model,71.4%
same,ω(Imax),[1]; population PK/PD model,192%
same,Gamma,"[1]; population PK/PD model, sigmoidal Imax",1.17
same,"Imax, maximum inhibitory effect on pRIPK1","[1]; population PK/PD model, typical value, SAD and MAD data",95.1% and 95%
same,IC50,"[1]; population PK/PD model, typical value, SAD and MAD data, read-out: IC50, plasma concentration needed for 50% of Imax (pRIPK1) (converted)",5.69 nM
same,Safety margin relative to the NOAEL exposure,[2],10 fold
same,"CSF/unbound plasma ratio, mean values",[3],~1.0
same,Kp,"[3]; CSF / unbound plasma, Part 1b single dose fed, [T1H-T3H], read-out: CSF-to-unbound Plasma concentration ratio, geometric mean",0.817
same,Kp,"[3]; CSF / unbound plasma, Part 1b single dose fed, [T1H-T3H], read-out: CSF-to-unbound Plasma concentration ratio, mean",0.84
same,Kp,"[3]; CSF / unbound plasma, Part 1b single dose fed, [T1H-T3H], read-out: CSF-to-unbound Plasma concentration ratio, median",0.732
same,Kp,"[3]; CSF / unbound plasma, Part 1b single dose fed, [T4H-T6H], read-out: CSF-to-unbound Plasma concentration ratio, geometric mean",0.755
same,Kp,"[3]; CSF / unbound plasma, Part 1b single dose fed, [T4H-T6H], read-out: CSF-to-unbound Plasma concentration ratio, mean",0.804
same,Kp,"[3]; CSF / unbound plasma, Part 1b single dose fed, [T4H-T6H], read-out: CSF-to-unbound Plasma concentration ratio, median",0.825
same,Kp,"[3]; CSF / unbound plasma, Part 1b single dose fed, [T5H-T16H], read-out: CSF-to-unbound Plasma concentration ratio, geometric mean",1.27
same,Kp,"[3]; CSF / unbound plasma, Part 1b single dose fed, [T5H-T16H], read-out: CSF-to-unbound Plasma concentration ratio, mean",1.27
same,Kp,"[3]; CSF / unbound plasma, Part 1b single dose fed, [T5H-T16H], read-out: CSF-to-unbound Plasma concentration ratio, median",1.31
same,Kp,"[3]; CSF / unbound plasma, time intervals [T1H-T3H] or [T4H-T6H], read-out: Ratio CSF to unbound plasma",~0.8
same,Kp,"[3]; CSF and unbound plasma, read-out: CSF/unbound plasma ratio, mean values",~1
same,Kp,"[3]; CSF and unbound plasma, time interval [T8H-T10H], read-out: Ratio CSF to unbound plasma",~1.3
